Results taken from patent publication US20150250782A1, “Methods and Compositions for Hypotensive Resuscitation” (Pharmazz, Inc., priority 2012, published 2015).

Tests used:
[1] = system: urethane anesthetized rats and conscious freely moving cats and rats; conditions: 0.05 to 0.2 mg/kg, iv; Srimal, Gulati et al. 1990; cited from earlier work
hemorrhaged rats [2] = assay: Fixed-pressure hemorrhage model, centhaquin dissolved in LR (100% SBV); type: in vivo, rat
Experimental: In the studies disclosed below, a rodent model of fixed-pressure hemorrhage without tissue trauma was used. This model limits factors that can influence the activity of a drug that is being investigated for the first time as a resuscitation agent. This hemorrhage model was made more severe by maintaining the hypotension for 30 minutes from the onset of hemorrhage to reach a base deficit of greater than −12 mEq/L (Gulati, Sen et al. 1997). In this irreversible situation, compensatory mechanisms fail (decompensatory phase), and a tremendous decrease in blood flow to all organs occurs, causing hypoperfusion leading to tissue hypoxia and end-organ failure (Gulati, Sen et al. 1997).
A rodent model of fixed-pressure hemorrhage without tissue trauma was used in a preliminary study. This hemorrhage model was made more severe by maintaining the hypotension for 30 min from the onset of hemorrhage to reach a base deficit of greater than −12 mEq/L (Gulati, Sen et al. 1997). […] Following groups were studied: Lactated Ringer's solution (LR-100) (100% shed blood volume (SBV)), or centhaquin (free base) (0.017, 0.05 and 0.15 mg/kg) dissolved in LR (100% SBV), or LR-300 (300% SBV).

hemorrhaged rats [3] = assay: Time by which MAP falls back to 35 mmHg in hemorrhaged rats, low volume resuscitation; type: in vivo, rat
Experimental: In another study, the effect of centhaquin resuscitation on the amount of norepinephrine (NE) required to maintain mean arterial pressure (MAP) and the time by which MAP falls back to 35 mmHg in hemorrhaged rats was determined. Male, adult rats were anesthetized with urethane and a pressure catheter SPR-320 was placed in the femoral artery, and a pressure-volume catheter SPR-869 was placed in the left ventricle. Hemorrhage was induced by withdrawing blood and MAP was maintained at 35 mmHg for 30 minutes followed by resuscitation.
Two sets of experiments were performed. First, the amount of NE required to maintain MAP at 70 mmHg in normal saline (NS) or centhaquin (0.05 mg/kg) treated rats (volume equal to blood loss) was determined. Second, the time by which MAP fell back to 35 mmHg in rats treated with 3% hypertonic saline (HS) or centhaquin (0.05 mg/kg) (volume one-fifth of blood loss) was determined. […] In a second set of experiments, hemorrhaged rats were resuscitated with either HS or centhaquin (one-fifth the volume of blood loss).

[4] = system: right auricle of guinea pig; conditions: Srimal, Mason et al. 1990, cited from earlier work
[5] = 0.05 mg/kg, 60 min following resuscitation
[6] = 0.05 mg/kg, one-fifth the volume of blood loss

Cc1cccc(N2CCN(CCc3ccc4ccccc4n3)CC2)c1 [centhaquin, 2-[2-(4-(3-methyphenyl)-1-piperazinyl)ethyl]-quinoline]
mean arterial pressure (MAP) and heart rate (HR) [1]: dose-dependent decrease | decrease in systemic vascular resistance (hemorrhaged rats [2]; 0.017 mg/kg): 57% | increase in MAP (hemorrhaged rats [2]; 0.017 mg/kg): 55% | increase in cardiac output (hemorrhaged rats [2]; 0.017 mg/kg): 260% | survival time (hemorrhaged rats [2]; 0.017 mg/kg in LR (100% SBV)): 291 ± 57 min | blood lactate levels (hemorrhaged rats [2]; 0.017 mg/kg, 60 min following resuscitation): 3.55 ± 0.07 mmol/L | decrease in systemic vascular resistance (hemorrhaged rats [2]; 0.05 mg/kg): 41% | increase in cardiac output (hemorrhaged rats [2]; 0.05 mg/kg): 180% | survival time (hemorrhaged rats [2]; 0.05 mg/kg in LR (100% SBV)): 387 ± 39 min | resuscitation compared to LR-300 (hemorrhaged rats [2]; 0.05 mg/kg in LR-100 vs LR-300 (300% SBV)): more effective in resuscitation | blood lactate levels (hemorrhaged rats [2]; [5]): 4.08 ± 0.28 mmol/L | increase in MAP (hemorrhaged rats [2]; [5]): 59% | blood lactate lower compared to hypertonic saline (hemorrhaged rats [3]; [6]): 44% | time by which MAP fell back to 35 mmHg (hemorrhaged rats [3]; [6]): 148 ± 15 min | survival after blood transfusion (hemorrhaged rats [3]; blood transfusion one-fifth the volume of blood loss after MAP fell to 35 mmHg): 788 min | effect on positive inotropic effect of norepinephrine [4]: significantly potentiated | spontaneous contraction of the right auricle ([4]; up to a concentration of 2 μg/ml): not affected
